Here are results for 2 compounds from patent publication US20130178479A1, “PHARMACEUTICAL COMBINATIONS” (NOVARTIS AG, priority 2010, published 2013).

Like-named read-outs stand apart in the source and are kept apart here. Where only a bound is given, the exact number is not on record here.

As usually defined, the IC90 is the point of the concentration-response curve where the effect stands at 90%. The term IC50 denotes the concentration at which inhibition is half-maximal.

Assay [1] has as its system p4EBP1 T37/46 in NCI-H23 cells. The assay can be described thus: High content p4EBP1 T37/46 assay in NCI-H23 cells. In kind it is cell-based, human. As for the experimental part:
(§1) Automated imaging assay (or High-Content assay) for pS6 S240/244 and p4EBP1 T37/46: 2-4×10^3 cells were seeded in clear-bottom 384-well black plates (Greiner #781091) in 30 μl per well growth media 24 hours prior to treatment Compounds were added to the cell in 10 μl growth media and incubated overnight; the cells were then fixed by addition of 10 μl per well Mirsky's fixative (National Diagnostics #HS-102) for 1 hour, washed seven times with 30 μl/well TBS buffer using a BioTek plate washer, and blocked with 100 μl/well blocking buffer (TBS with 0.1% BSA and 0.1% Triton X-100). The anti-Ser 240/244 -RPS6 antibody (CST #4838, 1:150 dilution) or anti-Thr 37/46-p4EBP1 antibody (CST #2855, 1:150 dilution) were then incubated overnight at 4° C. After seven times wash with TBS, the cells were stained with Cy5-conjugated goat-anti-rabbit IgG 2nd antibody (Millipore #AP187S, 1:150 dilution) and DNA staining dye Neediest 33342 for 1.5 hours. The phospho-S6 and phospho-4EBP1 signals were-imaged using InCell 1000 Analyzer (BN_staining—10×protocol) at 10× magnification, 3 fields per well after seven times wash with TBS. For Hoechst 33342 signal; the excitation and emission wave lengths are 360 nm (D360—40× filter) and […] (HQ460—40M filter), respectively, and for Cy5, 620 nm (HQ620—60× filter) for both the excitation and emission wave lengths. Analysis of the images was done using the InCell Investigator software.
(§2) Method for calculating the effect of the Combination: To evaluate the everolimus and Compound A combination effect in a non-bias way and to identify synergistic effect at all possible concentrations, the combination studies were conducted with a “dose matrix”, where a combination is tested in all possible permutations of serially-diluted everolimus and Compound A single agent doses, in all combination assays, compounds were applied simultaneously. Single agent dose responding curves, IC50, IC90, and the Synergy are all analyzed using Chalice software (CombinatoRx, Cambridge, Mass.). Synergy was calculated by comparing a combination's response to those of its single agents, against the drug-with-itself dose-additive reference model. Deviations from dose additivity can be assessed visually on an Isobologram or numerically With a Combination Index. Excess inhibition compare to additivity can also be plotted as a full dose-matrix chart to capture where the synergies occur. To quantify the overall strength of combination effects, a volume score VHSA=ΣXYInfXInfY(Idata−IHSA) is also calculated between the data and the highest-single-agent surface, normalized for single agent dilution factors fX,fY[ref].
The cells were plated at 3000 cells per well in 384 well plates in quadruplicates, and treated with compound for 18 hrs before the measurement (FIGS. 1-2).

Assay [2] concerns NCI-H23 human non-small cell lung cancer cells. The assay can be described thus: Cell proliferation assay (CellTiter-Glo) in NCI-H23. The conditions noted are these: for IC50: Homo sapiens. In kind it is cell-based. As for the experimental part:
(§3) Celt Proliferation Assay: Cell viability was determined by measuring cellular ATP content using the CellTiter-Glo® Luminescent Cell Viability Assay (Promega #G7573) according to manufacturer's protocol. Briefly, 1500-50000 cells were plated on either 384 or 96 well plates in 30 μl (384 well) or 100 μl (96 well) growth media, cells were: allowed to attach overnight and followed by 72 hrs of incubation with various concentration of drugs or drug combinations (10 μl per well in 384 well plates), at the end of the drug treatment, 30 μl of the CellTiter-Glo regent were added to each well (384 well plates) to lyse the cell, and luminescence signals were recorded on a Envision plate reader.
as §2
The experiment setup is identical to the p4EBP1 high content assay as used for the NCI-H23 cell model, (FIG. 5). And the same “doss matrix” (everolimus; 5 dose, 4×, 1.2 μM to 5 nM, Compound A: 9 dose, 2×, 1.2 μM to 5 nM) was applied.
Another experiment was conducted to evaluate the combination effect using cell titer glow (CTG) assay, this time, cells were plated in 384 well plates at 1000 cells/well in triplicates, and treated with compound for 72 hours before the measurement (FIG. 6). in this extended “dose matrix” study, everolimus was subjected to a 11 dose 4× serial dilution with the highest dose at 1 uM and the low dose at about 1 pM, and Compound A was subjected to a 9 dose 4× serial dilution with high dose at 1 μM and low dose at about 16 pM.
For orientation: Cellular ATP, detected with luciferase, serves as a proxy for viable cell number.

The test system of assay [3] is p4EBP1 T37/46 in MFE296 cells. The assay can be described thus: High content p4EBP1 T37/46 assay in MFE296 cells. In kind it is cell-based, human. As to conditions: for IC50 / IC90: Homo sapiens, MFE-296. How it is done:
as §1, §2
p4EBP1 signal. […] The cells were plated at 4000 cells/well in 384 well plates in duplicates, and treated with compound for 18 hrs before the measurement (FIG. 7).

The subject of assay [4] is RPMI 8226 human Multiple Myeloma cancer cells. The assay can be described thus: Cell proliferation assay (CellTiter-Glo) in RPMI 8226. In kind it is cell-based. The conditions noted are these: for IC50: Homo sapiens. How it is done:
as §3, §2
The cells were plated at 50000 cells/well in 96 well plates in triplicates, and treated with compound for 72 hrs prior to the measurement (FIG. 12). The following “dose matrix”, everolimus: 8 dose, 3×, 500 nM to 0.23 nM, Compound A: 8 dose, 2×, 1 μM to 8 nM, was applied.

Assay [5] has as its system SK-BR3 Human Breast Cancer cells. As to the kind of experiment: Cell proliferation assay (CellTiter-Glo) in SK-BR3. As to conditions: for IC50: Homo sapiens, SK-BR-3. In kind it is cell-based. How it is done:
as §3
The cells were plated at 2000 cells/well in 96 well plates in triplicates, and treated with compound for 72 hrs prior to the measurement. The following dose matrix, everolimus: 8 dose, 2×, […] to 15 nM, Compound A: 8 dose, 2×, 2 μM to 15 nM, was applied.

The subject of assay [6] is MDA-MB-361 Human Breast Cancer cells. As to the kind of experiment: Cell proliferation assay (CellTiter-Glo) in MDA-MB-361. In kind it is cell-based. The conditions noted are these: for IC50: Homo sapiens. How it is done: as §3
The cells were plated at 2000 cells/well in […] in triplicates, and treated with compound for 72 hrs prior to the measurement. The following “dose matrix”, everolimus: 8 dose, 2×, 2000 nM to 15 nM, Compound A: 8 dose, 2×, 2 μM to 15 nM, was applied.

Setting [7] is: with 5 nM everolimus vs Compound A alone.
The mark [8] stands for this setting: NCI-H23, 72 h, single agent, extended dose matrix, 72 hours (FIG. 6), read-out: IC50, inhibition of cell growth.
Where [9] appears, read: single agent, dose matrix 1.2 μM to 5 nM (FIG. 5).
The mark [10] stands for this setting: single agent, extended dose matrix, 72 hours (FIG. 6).
[11] abbreviates: single agent, RPMI 8226, 72 hrs.
Where [12] appears, read: single agent, SK-BR3, 72 hrs, read-out: IC50, inhibition of cell growth.
The mark [13] stands for this setting: single agent, MDA-MB-361, 72 hrs.

Regarding `Cn1c(=O)n(-c2ccc(C(C)(C)C#N)cc2)c2c3cc(-c4cnc5ccccc5c4)ccc3ncc21` [Compound A, 2-methyl-2-[4-(3-methyl-2-oxo-8-quinolin-3-yl-2,3-dihydro-imidazo[4,5-c]quinolin-1-yl)-phenyl]-propionitrile], the concentration for an effect of 90% (IC90) in assay [1] (Homo sapiens, in combination with 5 nM everolimus, NCI-H23, read-out: IC90 for Compound A, p4EBP1 signal) is 5 nM; in assay [1] (Homo sapiens, single agent, NCI-H23, 18 hrs, read-out: IC90, reduction of p4EBP1 signal), 80 nM; in assay [3] (in presence of trace amount of everolimus, MFE296, read-out: IC90 for Compound A, p4EBP1 signal), 4 nM; in assay [3] (single agent, MFE296, 18 hrs, read-out: IC90, reduction of p4EBP1 signal) it was around 100 nM. For the same compound, the IC50 came to 10 nM in assay [1] (Homo sapiens, single agent, NCI-H23, 18 hrs, read-out: IC50, reduction of p4EBP1 signal); 80 nM in assay [2] (setting [8]); 10 nM in assay [2] (NCI-H23, in combination with 5 nM everolimus, read-out: IC50 for Compound A, cell growth); 78 nM in assay [2] (NCI-H23, single agent, dose matrix 1.2 μM to 5 nM (FIG. 5), read-out: IC50, inhibition of cell growth); 0.24 nM in assay [3] (in presence of trace amount of everolimus, MFE296, read-out: IC50 for Compound A, p4EBP1 signal); 16 nM in assay [3] (single agent, MFE296, 18 hrs, read-out: IC50, reduction of p4EBP1 signal). Also, the IC50 in assay [4] (concomitant everolimus, RPMI 8226, read-out: IC50 for Compound A, cell growth) was 16 nM; in assay [4] (single agent, RPMI 8226, 72 hrs, read-out: IC50, inhibition of cell growth), around 125 nM; in assay [5] (concomitant everolimus, SK-BR3, read-out: IC50 for Compound A, cell growth) it was below 15 nM; in assay [5] (setting [12]), around 31 nM; in assay [6] (concomitant everolimus, MDA-MB-361, read-out: IC50 for Compound A, cell growth), below 15 nM; in assay [6] (single agent, MDA-MB-361, 72 hrs, read-out: IC50, inhibition of cell growth), around 60 nM. Moreover, the “concentration at which p4EBP1 signal reduction plateaued (complete inhibition)” value in assay [1] (single agent, NCI-H23) is listed as at least 167 nM. In addition, the “reduction of IC90 for Compound A, p4EBP1 signal” value in assay [1] (setting [7]) was 16 fold. In addition, the “Amax, the maximum fraction of inhibition” value in assay [2] (setting [9]) was found to be 0.7. In assay [2] (setting [9]), the “growth inhibition compare to DMSO control (at Amax)” value amounted to 70%. Besides, the Amax is given as 0.7 in assay [2] (setting [10]); 0.7 in assay [4] (setting [11]); 0.67 in assay [5] (single agent, SK-BR3, 72 hrs); 0.81 in assay [6] (setting [13]). The “reduction on IC50 of Compound A, cell growth” value in assay [2] (setting [7]) came out at 8 fold. Also, the “full effective dose amount of Compound A” value is above 125 nM in assay [4] (Compound A alone, RPMI 8226) and 16 to 62 nM in assay [4] (with trace amount (sub-nanomolar) of everolimus, RPMI 8226). The “full effective dose range of Compound A” value in assay [5] (Compound A alone, SK-BR3) is listed as 120 nM; in assay [5] (with low dose everolimus, SK-BR3), below 15 nM; in assay [6] (Compound A alone, MDA-MB-361) it was 120 nM; in assay [6] (with low dose everolimus, MDA-MB-361) it was below 15 nM.
Regarding `CO[C@H]1C[C@@H]2CC[C@@H](C)[C@@](O)(O2)C(=O)C(=O)N2CCCC[C@H]2C(=O)O[C@H]([C@H](C)C[C@@H]2CC[C@@H](OCCO)[C@H](OC)C2)CC(=O)[C@H](C)/C=C(\C)[C@@H](O)[C@@H](OC)C(=O)[C@H](C)C[C@H](C)/C=C/C=C/C=C/1C` [everolimus, 40-O-(2-hydroxyethyl)-rapamycin, reference compound], the p4EBP1 signal reduction entry in assay [1] (single agent, all concentrations tested 5 nM-1.2 μM, NCI-H23) is given as “approximately 30%”; in assay [3] (single agent, all concentrations tested 0.5 pM-500 nM, MFE296), “approximately 20%”. The IC50 in assay [2] (setting [8]) was above 1000 nM; in assay [5] (setting [12]) it was below 15 nM. Further, in assay [2] (setting [9]), the “Amax, the maximum fraction of inhibition” value is 0.3. Moreover, the “IC50, inhibition of cell growth” value in assay [2] (setting [9]) is reported as “never achieved an IC50”. Besides, the Amax in assay [2] (setting [10]) is recorded as 0.3; in assay [4] (setting [11]) it was 0.15; in assay [5] (single agent, SK-BR3, 72 hrs), 0.50; in assay [6] (setting [13]), below 0.50.
